Laboratory results as given in US12668587B2, “Benzimidazolone GLP-1 receptor agonist and use thereof” (HANGZHOU ZHONGMEIHUADONG PHARMACEUTICAL CO., LTD., priority 2020, dated 2026).
Where two headings read alike, the source gives them in different places.

Target: Human GLP-1R (Homo sapiens, UniProt P43220)
Test: GLP-1R agonist activity, HTRF cAMP detection in 293A GFP-GLP-1R cells
Parameters: Emax: dose or concentration left out as unconfirmed
Conditions: for Emax: 293A
[1] = cAMP level, 293A GFP-GLP-1R cells, 30 min incubation, geometric mean

Human GLP-1R, sequence (P43220 24-463): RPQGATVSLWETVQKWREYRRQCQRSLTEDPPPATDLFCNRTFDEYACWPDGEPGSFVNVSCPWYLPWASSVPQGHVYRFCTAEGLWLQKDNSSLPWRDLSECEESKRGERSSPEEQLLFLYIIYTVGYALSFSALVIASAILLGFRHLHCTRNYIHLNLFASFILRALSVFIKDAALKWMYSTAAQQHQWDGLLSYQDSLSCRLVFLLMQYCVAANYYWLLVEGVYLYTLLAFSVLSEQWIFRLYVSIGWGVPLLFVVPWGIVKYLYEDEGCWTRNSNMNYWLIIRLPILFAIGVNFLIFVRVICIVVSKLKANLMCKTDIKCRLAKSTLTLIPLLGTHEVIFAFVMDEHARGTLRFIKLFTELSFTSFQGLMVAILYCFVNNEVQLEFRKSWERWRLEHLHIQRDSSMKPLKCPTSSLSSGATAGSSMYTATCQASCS
Procedure: GLP-1R-mediated agonist activity was determined by cell-based assays using a homogeneous time-resolved fluorescence (i.e., HTRF)-based cAMP detection kit, which measures the level of cAMP in cells. The method was a competitive immunoassay. It enabled direct pharmacological characterization of compounds acting on Gs-coupled receptors in adherent or suspending cells.
The standard curve of native cAMP or unlabeled cAMP produced by cells competed with d2-labeled cAMP red receptors to bind monoclonal anti-cAMP Eu3+ cryptate donors, and the specific signal was inversely proportional to the concentration of cAMP in standard or tested samples.
Human GLP-1R encoding sequence (NCBI reference sequence NP_002053.3) was subcloned into pEGFP-N1 (tsingke), and the cell line stably expressing the receptor was isolated. The expression density of GLP-1R was confirmed by the expression of GFP observed under a fluorescence microscope.
Cells were collected from a T25 tissue culture flask and centrifuged at room temperature at 1000 rpm for 5 minutes. The cell precipitates were then re-suspended in 1 mL of the stimulating buffer. 20 μL sample of cell suspension was counted on a counter STAR IC 1000 to determine the cell viability and the cell count per mL. The remaining cell suspension was then regulated with the stimulating buffer to deliver 2000 living cells per well using a multi-channel pipette. 5 μL of the cell suspension was added to each well of the plate which already contained the compound. The plate was sealed and incubated at 37° C. with 5% CO2 for 30 minutes.
After 30 minutes of incubation, 5 μL of d2-labeled cAMP and 5 μL of anti-cAMP cryptate (both 1: 20 diluted in the cell lysis buffer) were added to each well of the plate. The plate was then incubated at room temperature for 60 minutes, and the changes of HTRF signal were read with Tecan Spark reader: absorbance values at 340 nm (excitation)/at 615 nm and 665 nm (emission). Raw data were converted into nM cAMP by interpolation from the cAMP standard curve, and the effect in percentage was determined relative to the saturated concentration of the complete agonist GLP-17˜37 (400 nM) contained in each plate. Determination of EC50 was performed based on the agonist dose-response curve, which was analyzed using a four-parameter logical dose-response equation with a curve fitting program.
The test data presented the results in the form of a geometric mean (EC50s) based on the number of repetition times.

| SMILES | EC50 [nM] | Emax [%] | EC50 [1] [nM] |
| --- | --- | --- | --- |
| CC(=O)c1ccc(COc2cccc(C3CCN(Cc4nc5ccc(C(=O)O)cc5n4C[C@@H]4CCO4)CC3)n2)c(F)c1 [Compound 1, (S)-2-((4-(6-((4-acetyl-2-fluorobenzyl)oxy)pyridin-2-yl)piperidin-1-yl)methyl)-1-(oxetan-2-ylmethyl)-1H-benzo[d]imidazole-6-carboxylic acid] | 0.85 | 111 | – |
| CS(=O)(=O)c1ccc(COc2cccc(C3CCN(Cc4nc5ccc(C(=O)O)cc5n4C[C@@H]4CCO4)CC3)n2)c(F)c1 [Compound 2, (S)-2-((4-(6-((2-fluoro-4-(methylsulfonyl)benzyl)oxy)pyridin-2-yl)piperidin-1-yl)methyl)-1-(oxetan-2-methyl)-1H-benzo[d]imidazole-6-carboxylic acid] | > 1000 | 29.8 | – |
| NC(=O)c1ccc(COc2cccc(C3CCN(Cc4nc5ccc(C(=O)O)cc5n4C[C@@H]4CCO4)CC3)n2)c(F)c1 [Compound 3, (S)-2-((4-(6-((4-carbamoyl-2-fluorobenzyl)oxy)pyridin-2-yl)piperidin-1-yl)methyl)-1-(oxetan-2-ylmethyl)-1H-benzo[d]imidazole-6-carboxylic acid] | – | 54.5 | 75.9 |
| CNC(=O)c1ccc(COc2cccc(C3CCN(Cc4nc5ccc(C(=O)O)cc5n4C[C@@H]4CCO4)CC3)n2)c(F)c1 [Compound 4, (S)-2-((4-(6-((2-fluoro-4-(methylcarbamoyl)benzyl)oxy)pyridin-2-yl)piperidin-1-yl)methyl)-1-(oxetan-2-ylmethyl)-1H-benzo[d]imidazole-6-carboxylic acid] | – | 68.6 | 179 |
| CC(=O)c1ccc(COc2cccc(C3CCN(Cc4nc5ccc(C(=O)O)nc5n4C[C@@H]4CCO4)CC3)n2)c(F)c1 [Compound 5, (S)-2-((4-(6-((4-acetyl-2-fluorobenzyl)oxy)pyridin-2-yl)piperidin-1-yl)methyl)-3-(oxetan-2-ylmethyl)-3H-imidazo[4,5-b]pyridine-5-carboxylic acid] | 0.54 | 81.3 | – |
| CP(C)(=O)c1ccc(COc2cccc(C3CCN(Cc4nc5ccc(C(=O)O)cc5n4C[C@@H]4CCO4)CC3)n2)c(F)c1 [Compound 6, (S)-2-((4-(6-((4-(dimethylphosphoryl)-2-fluorobenzyl)oxy)pyridin-2-yl)piperidin-1-yl)methyl)-1-(oxetan-2-ylmethyl)-1H-benzo[d]imidazole-6-carboxylic acid] | > 1000 | 7.07 | – |
| O=C(O)c1ccc2nc(CN3CCC(c4cccc(OCc5ccc(C(=O)C6CC6)cc5F)n4)CC3)n(C[C@@H]3CCO3)c2c1 [Compound 7, (S)-2-((4-(6-((4-(cyclopropanecarbonyl)-2-fluorobenzyl)oxy)pyridin-2-yl)piperidin-1-yl)methyl)-1-(oxetan-2-ylmethyl)-1H-benzo[d]imidazole-6-carboxylic acid] | – | 103 | 0.75 |
| O=C(O)c1ccc2nc(CN3CCC(c4cccc(OCc5ccc(C(=O)c6cccnc6)cc5F)n4)CC3)n(C[C@@H]3CCO3)c2c1 [Compound 8, (S)-2-((4-(6-((2-fluoro-4-nicotinoylbenzyl)oxy)pyridin-2-yl)piperidin-1-yl)methyl)-1-(oxetan-2-ylmethyl)-1H-benzo[d]imidazole-6-carboxylic acid] | – | 88 | 23.7 |
| CC(=O)c1ccc(COc2cccc(C3CCN(Cc4nc5ccc(C(=O)O)cc5n4C[C@@H]4CCO4)CC3)n2)nc1 [Compound 9, (S)-2-((4-(6-((5-acetylpyridin-2-yl)methoxy)pyridin-2-yl)piperidin-1-yl)methyl)-1-(oxetan-2-ylmethyl)-1H-benzo[d]imidazole-6-carboxylic acid] | 27 | 83.4 | – |
| CC(=O)c1ccc(COc2cccc(C3CCN(Cc4nc5ccc(C(=O)O)cc5n4C[C@@H]4CCO4)CC3)n2)c(C)c1 [Compound 10, (S)-2-((4-(6-((4-acetyl-2-methylbenzyl)oxy)pyridin-2-yl)piperidin-1-yl)methyl)-1-(oxetan-2-ylmethyl)-1H-benzo[d]imidazole-6-carboxylic acid] | 1.67 | 125 | – |
| CC(=O)c1ccc(COc2cccc(C3CCN(Cc4nc5ccc(C(=O)O)cc5n4C[C@@H]4CCO4)CC3)n2)c(C(F)(F)F)c1 [Compound 11, (S)-2-((4-(6-((4-acetyl-2-(trifluoromethyl)benzyl)oxy)pyridin-2-yl)piperidin-1-yl)methyl)-1-(oxetan-2-ylmethyl)-1H-benzo[d]imidazole-6-carboxylic acid] | 42.5 | 85.5 | – |
| COc1cc(C(C)=O)ccc1COc1cccc(C2CCN(Cc3nc4ccc(C(=O)O)cc4n3C[C@@H]3CCO3)CC2)n1 [Compound 12, (S)-2-((4-(6-((4-acetyl-2-methoxybenzyl)oxy)pyridin-2-yl)piperidin-1-yl)methyl)-1-(oxetan-2-ylmethyl)-1H-benzo[d]imidazole-6-carboxylic acid] | 0.25 | 147 | – |
| CC(=O)c1cc(F)c(COc2cccc(C3CCN(Cc4nc5ccc(C(=O)O)cc5n4C[C@@H]4CCO4)CC3)n2)c(F)c1 [Compound 13, (S)-2-((4-(6-((4-acetyl-2,6-difluorobenzyl)oxy)pyridin-2-yl)piperidin-1-yl)methyl)-1-(oxetan-2-ylmethyl)-1H-benzo[d]imidazole-6-carboxylic acid] | 40 | 88.5 | – |
| CC(=O)c1ccc(F)c(COc2cccc(C3CCN(Cc4nc5ccc(C(=O)O)cc5n4C[C@@H]4CCO4)CC3)n2)c1 [Compound 14, (S)-2-((4-(6-((5-acetyl-2-fluorobenzyl)oxy)pyridin-2-yl)piperidin-1-yl)methyl)-1-(oxetan-2-ylmethyl)-1H-benzo[d]imidazole-6-carboxylic acid] | 705 | 109 | – |
| CON(C)C(=O)c1ccc(COc2cccc(C3CCN(Cc4nc5ccc(C(=O)O)cc5n4C[C@@H]4CCO4)CC3)n2)c(F)c1 [Compound 15, (S)-2-((4-(6-((2-fluoro-4-(methoxy(methyl)carbamoyl)benzyl)oxy)pyridin-2-yl)piperidin-1-yl)methyl)-1-(oxetan-2-ylmethyl)-1H-benzo[d]imidazole-6-carboxylic acid] | > 1000 | 13.6 | – |
| CC(=O)c1ccc(COc2cccc(C3CCN(Cc4nc5ccc(C(=O)O)cc5n4C[C@@H]4CCO4)CC3)n2)cc1 [Compound 16, (S)-2-((4-(6-((4-acetylbenzyl)oxy)pyridin-2-yl)piperidin-1-yl)methyl)-1-(oxetan-2-ylmethyl)-1H-benzo[d]imidazole-6-carboxylic acid] | 7.19 | 88.2 | – |
| CC(=O)c1cccc(COc2cccc(C3CCN(Cc4nc5ccc(C(=O)O)cc5n4C[C@@H]4CCO4)CC3)n2)c1F [Compound 17, (S)-2-((4-(6-((3-acetyl-2-fluorobenzyl)oxy)-pyridin-2-yl)piperidin-1-yl)methyl)-1-(oxetan-2-ylmethyl)-1H-benzo[d]imidazole-6-carboxylic acid] | 7.68 | 104 | – |
| CC(=O)c1cccc(COc2cccc(C3CCN(Cc4nc5ccc(C(=O)O)cc5n4C[C@@H]4CCO4)CC3)n2)c1 [Compound 18, (S)-2-((4-(6-((3-acetylbenzyl)oxy)pyridin-2-yl)piperidin-1-yl)methyl)-1-(oxetan-2-ylmethyl)-1H-benzo[d]imidazole-6-carboxylic acid] | 22.1 | 113 | – |
| O=C(O)c1ccc2nc(CN3CCC(c4cccc(OCc5ccc(C(=O)C6CCOCC6)cc5F)n4)CC3)n(C[C@@H]3CCO3)c2c1 [Compound 19, (S)-2-((4-(6-((2-fluoro-4-(tetrahydro-2H-pyran-4-carbonyl)benzyl)oxy)pyridin-2-yl)piperidin-1-yl)methyl)-1-(oxetan-2-ylmethyl)-1H-benzo[d]imidazole-6-carboxylic acid] | – | 129 | 145 |
| COc1cc(C(=O)C2CC2)ccc1COc1cccc(C2CCN(Cc3nc4ccc(C(=O)O)cc4n3C[C@@H]3CCO3)CC2)n1 [Compound 20, (S)-2-((4-(6-((4-(cyclopropanecarbonyl)-2-methoxybenzyl)oxy)pyridin-2-yl)piperidin-1-yl)methyl)-1-(oxetan-2-ylmethyl)-1H-benzo[d]imidazole-6-carboxylic acid] | 0.31 | 120 | – |
| CC(=O)c1ccc(COc2cccc(C3CCN(Cc4nc5ccc(C(=O)O)cc5n4C[C@@H]4CCO4)CC3)n2)c(OC(F)(F)F)c1 [Compound 21, (S)-2-((4-(6-((4-acetyl-2-(trifluoromethoxy)benzyl)oxy)pyridin-2-yl)piperidin-1-yl)methyl)-1-(oxetan-2-ylmethyl)-1H-benzo[d]imidazole-6-carboxylic acid] | 95.3 | 91.8 | – |
| COc1cc(COc2cccc(C3=CCN(Cc4nc5ccc(C(=O)O)cc5n4C[C@@H]4CCO4)CC3)n2)ccc1C(C)=O [Compound 23, (S)-2-((6-((4-acetyl-3-methoxybenzyl)oxy)-3′,6′-dihydro-[2,4′-bipyridin]-1′(2′H)-yl)methyl)-1-(oxetan-2-ylmethyl)-1H-benzo[d]imidazole-6-carboxylic acid] | 16.1 | 108 | – |
| CN(C)C(=O)c1ccc(COc2cccc(C3CCN(Cc4nc5ccc(C(=O)O)cc5n4C[C@@H]4CCO4)CC3)n2)c(F)c1 [Compound 24, (S)-2-((4-(6-((4-(dimethylcarbamoyl)-2-fluorobenzyl)oxy)pyridin-2-yl)piperidin-1-yl)methyl)-1-(oxetan-2-ylmethyl)-1H-benzo[d]imidazole-6-carboxylic acid] | > 1000 | 25.8 | – |
| CC(=O)c1ccc(COc2cccc(C3CCN(Cc4nc5ccc(C(=O)O)cc5n4C[C@@H]4CCO4)CC3)n2)cc1F [Compound 26, (S)-2-((4-(6-((4-acetyl-3-fluorobenzyl)oxy)pyridin-2-yl)piperidin-1-yl)methyl)-1-(oxetan-2-ylmethyl)-1H-benzo[d]imidazole-6-carboxylic acid] | 4.57 | 94.4 | – |
| CC(=O)c1ccc(COc2cccc(C3CCN(Cc4nc5ccc(C(=O)O)cc5n4C[C@@H]4CCO4)CC3)n2)c(Cl)c1 [Compound 27] | 0.13 | 83.9 | – |
